Measurements from patent US20170285010A1, “Analytical Methods and Arrays for Use in the Same” (SENZAGEN AB, priority 2014, published 2017).
Read-outs that look alike come from different tables or passages of the source.

Key:
[1] = system: MUTZ-3; assay: GARD Respiratory Prediction Signature (GRPS) SVM classification of the independent test dataset; conditions: for SVM decision value: MUTZ-3, 24 h stimulation at GARD input concentration, 389 GRPS transcripts
Experimental: (§1) The human acute myelomonocytic leukemia cell line MUTZ-3[68,69] was obtained from Leibniz-lnstitut DSMZ-Deutsche Sammlung von Mikroorganismen and Zellkulturen (DSMZ, Braunschweig, Germany). Maintenance of cells, chemical stimulation of MUTZ-3 and all subsequent isolation of mRNA and preparation of cDNA were performed as previously described. In short, a phenotypic control of MUTZ-3 was performed using flow cytometry prior to chemical stimulation to ensure cells were in an immature state. The following FITC-conjugated mouse monoclonal antibodies (mAbs) were used: CD1a (DakoCytomation, Glostrup, Denmark), CD34, CD86, HLA-DR, IgG1 (BD Biosciences, Franklin Lakes, N.J.). The following PE-conjugated mouse monoclonal antibodies were used: CD14 (DakoCytomation), CD54, CD80, IgG1 (BD Biosciences). Cell viability was determined using Propidium Iodide (BD Biosciences) staining. Samples were run on FACSCanto II instrument. Data was acquired using FACS Diva software (BD Biosciences) and analyzed using FCS Express V4 (De Novo Software, Los Angeles, Calif.). Gating was performed to exclude cell debris and non-viable cells based on forward- and side-scattering properties and quadrants established using isotype-controls. During chemical exposure, cells were seeded at 200.000 cells/ml in 24-well plates and exposed to chemical compound at the GARD input concentration. Stimulated cells were harvested after 24 h incubation at 37° C., 5% CO2 and RNA was isolated with TRIzol® reagent (Life Technologies, Carlsbad, Calif.) using standardized protocols provided by the manufacturer. In parallel, a control of the maturity state of the cells was performed by flow cytometric analysis of CD86. Preparation of cDNA and hybridization, washing and scanning of the Human Gene 1.0 ST Arrays (Affymetrix, Santa Clara, Calif., USA) was performed, according to standardized protocols provided by the manufacturer (Affymetrix).
Gene expression data obtained from the Human Gene 1.0 ST Arrays were normalized using the Single-Channel array normalization (SCAN) algorithm, and potential batch effects between different set of experiments were adjusted using the ComBat empirical bayes method. Normalizations and batch adjustments were performed in R statistical software using the open software Bioconductor v2.14 [73] with the additional software packages SCAN.UPC [70] and sva . Normalized data was imported into Qlucore Omics Explorer 3.0 (Qlucore AB, Lund, Sweden) and visualized using Principal Component Analysis (PCA). Predictors were selected from a one-way ANOVA p-value filtration, using false discovery rate (FDR) to adjust for multiple hypothesis testing, comparing respiratory sensitizers and non-respiratory sensitizers. […] The Backward Elimination algorithm was modified to minimize the Kullback-Leibler error [53] rather than maximizing the Area Under the Receiver Operating Characteristic (AUC ROC), in order to enable signature optimization in cases where the AUC ROC reaches 1.0. […] The script for Backwards Elimination was programmed in R, with the additional package e1071 [78]. The method by which the predictive genomic biomarker signature was established was validated using cross-validation based on Support Vector Machines (SVM), based on a linear kernel, as described previously. In short, the training dataset was randomly divided into a new cross-validation training dataset comprising 70% of the stimulations, and a cross-validation test dataset comprising 30% of the stimulations. In addition, care was taken to maintain the same proportion between respiratory sensitizers and non-respiratory sensitizers as in the complete training dataset. A new predictive genomic biomarker signature was identified from the cross-validation training dataset using one-way ANOVA p-value filtration as described above.

[2] = system: MUTZ-3; assay: Chemical cytotoxicity, Rv90 (90% relative viability), propidium iodide staining
Text: A panel of 32 reference chemicals comprising a selection of 10 well characterized respiratory sensitizers and 22 non-respiratory sensitizers, collectively termed the training dataset, were used for cell stimulations in order to establish the predictive genomic biomarker signature. […] Additionally, a panel of 25 chemicals, including 6 respiratory sensitizers and 19 non-respiratory sensitizers, collectively termed the independent test dataset, were used for cell stimulations in order to form an independent testset for validation of the identified predictive genomic biomarker signature. The independent training dataset comprised both control chemicals, included during the training of the model, as well as chemicals previously unseen during training of the model. […] All chemicals were purchased from Sigma-Aldrich (St. Louis, Mo., USA). Chemicals were dissolved and diluted into GARD input concentration in either water or DMSO prior to stimulation of cells. For chemicals dissolved in DMSO, the in-well concentration of DMSO was 0.1%. Monitoring of chemical cytotoxicity and establishment of GARD input concentration for each chemical compound was performed as previously described. […] Toxic compounds were used at a concentration yielding 90% relative viability (Rv90). The criterion that was first met determined the GARD input concentration for each compound.
as §1

[3] = Max solubility of chemicals for establishing the GARD input concentration
[4] = occupational asthma and allergic contact dermatitis, ref. [64]; cited from earlier work
[5] = concentration yielding 90% relative viability, MUTZ-3, Table 2
[6] = respiratory sensitizer if any replicate stimulation has SVM decision value >0
[7] = reference compounds used during assay development (Table 1)

SMILES	Classification Pos if 1 sample >0 [1]	SVM decision value ([1]; replicate 1)	SVM decision value ([1]; replicate 2)	SVM decision value ([1]; replicate 3)	other results
OCC(O)CO [Glycerol]	Non-sensitizer	−1.05	−1.11	−0.77	
O=CC=O [Glyoxal]		−1.02	−0.69	−0.56	Rv90 [2, 5]: 300 µM; Classification Pos if 1 sample >0 [1, 6]: Non-sensitizer
CC=Cc1ccc(O)c(OC)c1 [Isoeugenol]					Rv90 ([2]; human): 300 µM
CC(O)C(=O)O (centres unmarked) [Lactic acid]		−1.20	−0.81	−0.89	
O=C=Nc1ccc(Cc2ccc(N=C=O)cc2)cc1 [Methylene diphenol diisocyanate]					Max solubility [3, 7]: 50 µM
CCCCCCCC(=O)O [Octanoic acid]	Non-sensitizer	−0.65	−0.79	−1.22	
Oc1ccccc1 [Phenol]	Non-sensitizer				
O=C1OC(=O)c2ccccc21 [Phtalic Anhydride]		0.20	−0.12		Classification Pos if 1 sample >0 [1, 6]: Sensitizer (classified as a respiratory sensitizer if any of replicate stimulations have a SVM decision value > 0); Max solubility ([3]; chemicals of the independent dataset (Table 2)): 200 µM; Max solubility [3, 7]: 200 µM
C1CNCCN1 [Piperazine]	Non-sensitizer	−0.05	−0.12		
Oc1cccc(O)c1 [Resorcinol]	Non-sensitizer	−1.01	−0.99	−1.40	
O=C(O)c1ccccc1O [Salicylic acid]	Non-sensitizer	−0.73	−1.08	−1.13	
CCCCCCCCCCCCOS(=O)(=O)[O-].[Na+] [Sodium dodecyl sulphate]	Non-sensitizer	−1.49	−0.80	−1.30	Rv90 [2, 5]: 200 µM
O=C(O)c1ccc(O)cc1 [p-hydroxybenzoic acid]	Non-sensitizer	−0.81	−0.56	−1.09	
Nc1ccc(N)cc1 [p-phenylenediamine]		−1.38	−1.19	−1.80	Rv90 [2, 5]: 75 µM; Classification Pos if 1 sample >0 [1, 6]: Non-sensitizer
O=c1n(CC2CO2)c(=O)n(CC2CO2)c(=O)n1CC1CO1 (centres unmarked) [triglycidylisocyanurate]					Sensitization in humans (OA, ACD) [4]: cause both OA and ACD
